This is an account of results in US11168055B2, “Endocyclic thiamidinoamide-arylamide compound and use thereof for treating hepatitis B” (SHANGHAI LONGWOOD BIOPHARMACEUTICALS CO., LTD., priority 2017, dated 2021).

Molecules are shown by their SMILES.

For data set [1], the system named is HBV DNA in the supernatant of HepG2.2.15. Put plainly: Determination of anti-HBV activity in HepG2.2.15 cell (HBV DNA in supernatant by qPCR). The class given is cell-based, Hepatitis B virus. To be noted: HepG2.2.15 cells, HBV DNA; read-out: Experiment 2 Cell experiment EC50. Background: Quantitative PCR measures a nucleic acid by following its amplification.
For another data set, the system named is HepG2 cells. Description: Determination of cytotoxicity (HepG2 cells, resazurin assay, 4 days). The class given is cell-based. To be noted: read-out: Experiment 3 Cytotoxicity CC50. On the procedure:
Experiment 3: Determination of Cytotoxicity
The cytotoxicity of the test compound was tested using HepG2 cells. The cells were incubated for 4 days in the presence of the test compound. Cell activity was assessed using the resazurin assay.
A general note: The colour change of resazurin is a common sign of viable cells or microbes.

Consider `CC(C)[C@H]1CCc2c(cn(C)c2C(=O)Nc2cc(F)c(F)c(F)c2)S(=N)(=O)N1` (single isomer, unassigned) [Compound 20c2], for which, in data set [1], the EC50 fell in the range of 0.1 to 100 nM. In addition, in the data set with HepG2 cells, the half-maximal cytotoxic concentration (CC50) is > 30000 nM.
Consider `CC(C)C[C@H]1C=Cc2c(cn(C)c2C(=O)Nc2cc(F)nc(C#N)c2)S(=N)(=O)N1` (single isomer, unassigned) [Compound 10w2], for which the EC50 in data set [1] was 0.1 to 100 nM. Besides, the CC50 in the data set with HepG2 cells was > 30000 nM.
For `CCN=S1(=O)N[C@@H](C(C)C)CCc2c1cn(C)c2C(=O)Nc1ccc(F)c(C#N)c1` (single isomer, unassigned) [Compound 60g2] the same measures were 0.1 to 100 nM and > 30000 nM.
For `CC[C@H](C)[C@H]1C=Cc2c(cn(C)c2C(=O)Nc2ccc(F)c(F)c2)S(=N)(=O)N1` (single isomer, unassigned) [Compound 10n2] the same measures were 0.1 to 100 nM and > 30000 nM.
As for `Cn1cc2c(c1C(=O)Nc1ccc(F)c(F)c1)CC[C@H](CO)NS2(=N)=O` (single isomer, unassigned) [Compound 40g2], the EC50 in data set [1] was in the range of 100 to 1000 nM. In addition, the CC50 with HepG2 cells was > 30000 nM.
Take `Cn1cc2c(c1C(=O)Nc1ccc(F)c(C#N)c1)C=C[C@H](C1CCCCC1)NS2(=N)=O` (single isomer, unassigned) [Compound 10cc2]: the EC50 in data set [1] was in the range of 0.1 to 100 nM. In addition, in the data set with HepG2 cells, the CC50 was > 30000 nM.
Turning to `CN=S1(=O)N[C@@H](C(C)C)CCc2c1nn(C)c2C(=O)Nc1ccc(F)c(C#N)c1` (single isomer, unassigned) [Compound 90a2], the EC50 in data set [1] is 0.1 to 100 nM. Moreover, the CC50 in the data set on HepG2 cells is > 30000 nM.
The matching figures for `CC(C)[C@H]1C=Cc2c(cn(C)c2C(=O)Nc2ccnc(C(F)F)c2)S(=N)(=O)N1` (single isomer, unassigned) [Compound 10f2]: 0.1 to 100 nM and > 30000 nM.
For `Cn1cc2c(c1C(=O)Nc1cc(F)nc(C#N)c1)CC[C@H](C1CCCCC1)NS2(=N)=O` (single isomer, unassigned) [Compound 20dd2] the same measures were 0.1 to 100 nM and > 30000 nM.
Take `CC(C)C[C@H]1C=Cc2c(cn(C)c2C(=O)Nc2ccc(F)c(C#N)c2)S(=O)(=NC2CC2)N1` (single isomer, unassigned) [Compound 50v2]: in data set [1], the EC50 lay within 0.1 to 100 nM. The half-maximal cytotoxic concentration (CC50) in the data set with HepG2 cells was > 30000 nM.

Broadly, the EC50 is the midpoint of the concentration-response curve. As a reminder, the CC50 is the concentration giving 50% cytotoxicity.
